Measurements: publication PMC11530130, “Peripherally restricted PICK1 inhibitor mPD5 ameliorates pain behaviors in murine inflammatory and neuropathic pain models” (JCI Insight, 2024)
Values joined by “and” are separate entries in the source; they are usually repeats but may differ in a detail not shown here. Equal values may be shown once. “Also recorded” adds a separate entry of the source.

Key:
[1] = system: mice, CFA model of inflammatory pain; experiment: CFA model, Hargreaves test (thermally evoked pain); format: in vivo, mouse; details: s.c. 10 μmol/kg
Description: Induction of inflammatory pain (CFA model).
Injury was induced on the right hind paw, whereas the contralateral left hind paw was used as internal control of the C57BL/6J male and female mice (Janvier, France). The inflammatory pain was induced by injection of 50 μL undiluted Complete Freund’s Adjuvant (CFA) (F5881, Sigma) unilaterally into the intraplantar surface of the right hind paw, whereas control mice were injected with the same amount of 0.9 % saline (B. Braun, Germany). All intraplantar injections were performed with an insulin needle (0.3 mL BD Micro-Fine) while the animal was under isoflurane anaesthesia (2%) for maximum 60 seconds. Von Frey was applied up to 11 days after unilateral CFA injection depending on the experiment. (For Figure 3A, the experiment was run in cohort with Figure 1A of (9)).
Induction of neuropathic pain (SNI model). […]
Post-surgical analgesia included s.c. injection of 5 mg/kg carprofen (Carprosan vet, 50 mg/mL mixed 1:25 in sterile ddH2O, Dechra, Le Vet Beheer B.V., Netherlands, Batch: 050520) right after surgery and the following day. Post-surgical care included daily severity scoring for four days, and medical clips removed. X-ray imaging (IVIS Lumina XR Apparatus, Caliper Life Sciences, Belgium) was conducted to estimate the relative femoral bone density of the ipsilateral femur at baseline and at the experimental endpoint. The test battery of the CIBP model was carried out 45 or 90 min after morphine and mPD5 administration respectively to accommodate the peak efficacy […]
Mechanically evoked pain (von Frey test).
Unless otherwise specified, von Frey occurred as described in the following. Animals were habituated to the experimental room for a minimum of 60 min before initiation of the experiment. Mechanical paw withdrawal threshold (PWT) was determined by von Frey measurements of both hind paws. Von Frey filaments ranging from 0.04 to 2 g (g = gram- […]
Filaments in ascending order were applied to the frontocentral plantar surface of the hind paws.
Mice were placed in PVC plastic boxes (11.5 cm x 14 cm) on a wire mesh and allowed minimum 20 min habituation prior of experiment initiation. Each von Frey hair was applied five times with adequate resting periods between each application and number of withdrawals recorded. The withdrawal threshold was determined as the von Frey filament eliciting at least three positive trials out of the five applications in two consecutive filaments. A positive trial was defined as sudden paw withdrawal, flinching and/or paw licking induced by the filament.
For the CIBP model, two habituation sessions were performed on separated days with mice placed in the von Frey equipment for 1-1.5 hours in the presence of the experimenter on day one and random von Frey pocking with the 0.6 g filament on day two. Von Frey monofilaments (North Coast Touch Test, North Coast Medical, Inc.) with target forces of 0.04g, 0.07g, 0.16g, […]
down method” (PWT=10Xf+kδ) starting with the 0.6 g filament. Positive response was defined as; withdrawal, shaking or grooming of paw following a 2-3 second stimulation. In case, of unclear response, stimulus was repeated after 10-15 seconds.
For the STZ model, the mechanical threshold response of the injected mice was measured with […]
injection of test compounds on day 14, mechanical threshold was measured at 1 hour, 2 hours, 4 hours and 6 hours and again on day 15. […]
Thermally evoked pain (Hargreaves test).
A baseline Hargreaves test was performed on day 0 before inflammatory pain was induced as described in section 2.13. In the Hargreaves test, the mouse was placed in a container on a glass table and left to habituate for at least 15 min. Using the Hargreaves apparatus, a heat beam from beneath was directed towards the hind paws of the mouse, and the paw withdrawal time […]
was registered automatically. The cut off was set to maximum 30 seconds to avoid skin injury and the experiment was repeated 5 times for each paw with at least five min in between […]
measurements. […]

[2] = Plasma exposure after single s.c. injection, LC-MS/MS; format: in vivo, mouse; set-up: maximal plasma concentration / plasma concentration, individual mice: unit not given here
Description: Assessment of plasma levels and biodistribution of mPD5.
The mPD5 plasma exposure was determined by (WuXI AppTec (Shanghai, China)) and done following s.c. injection of three male C57BL/6N (vendor: VTLH) mice (7-9 weeks old, fasted) with each concentration of mPD5 (2, 10 and 50 µmol/kg) in sterile PBS. Blood samples were taken 30 min, 1 hour, 2 hours, 5 hours, and 12 hours following injection. For the repeated administration experiment, the initial s.c. injection of 10 µmol/kg was followed by 4 s.c. administrations of 2 µmol/kg with one hour between injections. Following the last injection, blood samples (0.03 mL from saphenous vein or other suitable site) were collected in EDTA- […]
K2 tubes at 5 min, 30 min, 1 hour, 5 hours, 12 hours, 24 hours, and 48 hours and centrifuged (app 4 ℃, 3200 g, 10 min) for collection of plasma. Plasma was transferred to 96 well plates and quick-frozen over dry ice and kept at -60 ℃ until LC-MS/MS analysis. For LC-MS/MS analysis plasma with 0.25% Triton X100 in 50% MeOH/water (6 µL) was quenched with 160 µL of IS1 (internal standard in MeOH (Labetalol & tolbutamide & Verapamil & dexamethasone & glyburide & Celecoxib 100 ng/mL for each)) and the mixture was vortexed for 10 min at 800 rpm and centrifuged for 15 min at 3220 × g at 4 ℃. An aliquot of 65 µL supernatant was transferred to a clean 96-well plate and centrifuged for 5 min at 3220 × g at 4 ℃, then the supernatant was directly injected for LC-MS/MS analysis. Plasma half-lives were determined from three points in the elimination phase. […]

With CCCCCCCCCCCCCC(=O)N(CCOCCOCCC(=O)N[C@@H](Cc1c[nH]cn1)C(=O)N[C@@H](Cc1c[nH]c2ccccc12)C(=O)N[C@@H](CC(C)C)C(=O)N[C@@H](CCCCN)C(=O)N[C@H](C(=O)O)C(C)C)CCOCCOCCC(=O)N[C@@H](Cc1c[nH]cn1)C(=O)N[C@@H](Cc1c[nH]c2ccccc12)C(=O)N[C@@H](CC(C)C)C(=O)N[C@@H](CCCCN)C(=O)N[C@H](C(=O)O)C(C)C [mPD5, myristoyl-NPEG4-(HWLKV)2] the “effect on the contralateral paw (Hargreaves)” value [1] was “No effect”, the “effect on thermal hypersensitivity of the ipsilateral paw” value ([1]; 1 hour after administration) was “reverted” and the “paw withdrawal latency (Hargreaves), individual mice” value (“paw withdrawal latency (Hargreaves)” for short) ([1]; contralateral paw, 1 h) was 10.93 and 8.17 and 12.67 and 7.53 and 10.3 and 14.03. For the same compound, the “paw withdrawal latency (Hargreaves)” value ([1]; contralateral paw, 5 h) was 15.97 and 9.47 and 12.27 and 10.97 and 14.37 and 8.3, the “paw withdrawal latency (Hargreaves)” value ([1]; contralateral paw, 21 h) was 15.23 and 12.33 and 19.73 and 9.13 and 7.03 and 15.57 and the “paw withdrawal latency (Hargreaves)” value ([1]; ipsilateral paw, 1 h) was 8.4 and 16.3 and 10.87 and 15.83 and 12.17 and 11.77. The “paw withdrawal latency (Hargreaves)” value ([1]; ipsilateral paw, 5 h) was 10.8 and 9.77 (2×) and 5.13 and 6.33 and 4.77, the “paw withdrawal latency (Hargreaves)” value ([1]; ipsilateral paw, 21 h) was 6.3 and 9.13 and 2.77 and 3.3 and 2.37 and 11.83 and the half-life ([2]; male, C57BL/6N, mouse, plasma, sc, 2 umol/kg, mice, s.c. 2 μmol/kg) was 30 ± 4.2 min. The half-life ([2]; male, C57BL/6N, mouse, plasma, sc, 10 umol/kg, mice, s.c. 10 μmol/kg) was 35.4 ± 4.2 min, the half-life ([2]; male, C57BL/6N, mouse, plasma, sc, 10 umol/kg; mice, s.c. 10 μmol/kg) was 36 min and the half-life ([2]; male, C57BL/6N, mouse, plasma, sc, 50 umol/kg, mice, s.c. 50 μmol/kg) was 50.4 ± 1.8 min. For the same compound, the Tmax ([2]; male, C57BL/6N, mouse, plasma, sc, 50 umol/kg; mice, s.c., all doses (2, 10, 50 μmol/kg); read-out: time of maximal plasma concentration) was 1 h, the maximal plasma concentration ([2]; mice, s.c. 2 μmol/kg, 1 hour) was 1.4 ± 0.1 and the maximal plasma concentration ([2]; mice, s.c. 10 μmol/kg, 1 hour) was 6.2 ± 5. For the same compound, the maximal plasma concentration ([2]; mice, s.c. 50 μmol/kg, 1 hour) was 20.2 ± 0.6, the “maximal dose and area under the curve vs dose” value ([2]; mice, s.c. 2, 10, 50 μmol/kg) was “scaled linearly with dose” and the distribution volume ([2]; mice, s.c., all concentrations) was “approximately 30 mL”. For the same compound, the elimination kinetics ([2]; mice, s.c., all doses) was “first-order kinetics; also recorded: eliminated with linear kinetics”, the “plasma concentration, individual mice” value ([2]; s.c. 2µmol/kg; 0.5 h) was 1295 and 1523 and 1490 and the “plasma concentration, individual mice” value ([2]; s.c. 2µmol/kg; 1 h) was 1326 and 1469 and 1351. For the same compound, the “plasma concentration, individual mice” value ([2]; s.c. 2µmol/kg; 2 h) was 439 and 392 and 443, the “plasma concentration, individual mice” value ([2]; s.c. 2µmol/kg; 5 h) was 8.69 and 2.25 and 8.61 and the “plasma concentration, individual mice” value ([2]; s.c. 10µmol/kg; 0.5 h) was 4235 and 5102 and 3488. The “plasma concentration, individual mice” value ([2]; s.c. 10µmol/kg; 1 h) was 6616 and 5618 and 6285, the “plasma concentration, individual mice” value ([2]; s.c. 10µmol/kg; 2 h) was 2485 and 2007 and 1777 and the “plasma concentration, individual mice” value ([2]; s.c. 10µmol/kg; 5 h) was 101 and 46.6 and 33.1. For the same compound, the “plasma concentration, individual mice” value ([2]; s.c. 50µmol/kg; 0.5 h) was 12546 and 11390 and 17752, the “plasma concentration, individual mice” value ([2]; s.c. 50µmol/kg; 1 h) was 20045 and 20980 and 19750 and the “plasma concentration, individual mice” value ([2]; s.c. 50µmol/kg; 2 h) was 14800 and 13957 and 8907. The “plasma concentration, individual mice” value ([2]; s.c. 50µmol/kg; 5 h) was 1391 and 1198 and 438 and the “plasma concentration, individual mice” value ([2]; s.c. 50µmol/kg; 12 h) was 3.21 and 3.81 and 2.66.
